Reference: publication PMC2364952, “The Anti-Inflammatory Activity of Boron Derivatives in Rodents” (Metal-Based Drugs, 1995)

How the values were obtained:
[1] = target: elastase; experiment: Elastase activity, mouse macrophages; assay type: cell-based, mouse (J774 macrophages); details: Table 5; read-out: IC50 Elastase, Mouse Macrophage
[2] = system: cathepsin; experiment: Cathepsin activity, mouse macrophages; assay type: cell-based, mouse (J774 macrophages); details: Table 3; read-out: IC50 Cathepsin, Mouse Macrophage
[3] = system: trypsin; experiment: Trypsin proteolytic activity, mouse macrophages; assay type: cell-based, mouse (J774 macrophages); details: Table 5; read-out: IC50 Trypsin, Mouse Macrophage
[4] = target: aryl sulphatase; experiment: Aryl sulfatase activity, mouse macrophages; assay type: cell-based, mouse (J774 macrophages); details: Table 3; read-out: IC50 Aryl Sulfatase, Mouse Macrophage
[5] = system: neutral cathepsin; experiment: Cathepsin activity, UMR-106 osteosarcoma cells; assay type: cell-based; details: Table 6; read-out: IC50 Neutral Cathepsin, Rat UMR-106 Bone Osteosarcoma
[6] = system: trypsin; experiment: Trypsin activity, UMR-106 osteosarcoma cells; assay type: cell-based; details: Table 6; read-out: IC50 Trypsin, Rat UMR-106 Bone Osteosarcoma
[7] = system: carrageenan-induced inflammation of hind foot; experiment: Carrageenan-induced foot edema, mice; assay type: in vivo, CF1 male mice; details: mice; for reduction of induced edema: 8 mg/kg x 2, I.P., carrageenan
[8] = system: elastase; experiment: Elastase activity, UMR-106 osteosarcoma cells; assay type: cell-based; details: Table 6; read-out: IC50 Elastase, Rat UMR-106 Bone Osteosarcoma
[9] = target: acid phosphatase; experiment: Acid phosphatase activity, mouse macrophages; assay type: cell-based, mouse (J774 macrophages); details: Table 3; read-out: IC50 Acid Phosphatase, Mouse Macrophage
[10] = target: prostaglandin cyclooxygenase; experiment: Prostaglandin cyclooxygenase activity, macrophages; assay type: cell-based, mouse (J774 macrophages); details: Table 7
[11] = system: acetic acid induced stretch reflex; experiment: Local analgesic screen (acetic acid writhing); assay type: in vivo, CF1 mice; details: for Mice Writhing Reflex: 8 mg/kg I.P., Table 2; for reduction of the reflex action: mice, acetic acid induced local pain, 8 mg/kg
[12] = target: T1, 5'-lipoxygenase (Mus musculus, UniProt P48999); experiment: 5'-Lipoxygenase activity, mouse macrophages; assay type: cell-based; details: Table 7; read-out: IC50 5'-Lipoxygenase, Mouse Macrophage
T1 construct: endogenous in cells; host or cells: mouse macrophages (J774A as maintained above)
T1 sequence (P48999 1-674): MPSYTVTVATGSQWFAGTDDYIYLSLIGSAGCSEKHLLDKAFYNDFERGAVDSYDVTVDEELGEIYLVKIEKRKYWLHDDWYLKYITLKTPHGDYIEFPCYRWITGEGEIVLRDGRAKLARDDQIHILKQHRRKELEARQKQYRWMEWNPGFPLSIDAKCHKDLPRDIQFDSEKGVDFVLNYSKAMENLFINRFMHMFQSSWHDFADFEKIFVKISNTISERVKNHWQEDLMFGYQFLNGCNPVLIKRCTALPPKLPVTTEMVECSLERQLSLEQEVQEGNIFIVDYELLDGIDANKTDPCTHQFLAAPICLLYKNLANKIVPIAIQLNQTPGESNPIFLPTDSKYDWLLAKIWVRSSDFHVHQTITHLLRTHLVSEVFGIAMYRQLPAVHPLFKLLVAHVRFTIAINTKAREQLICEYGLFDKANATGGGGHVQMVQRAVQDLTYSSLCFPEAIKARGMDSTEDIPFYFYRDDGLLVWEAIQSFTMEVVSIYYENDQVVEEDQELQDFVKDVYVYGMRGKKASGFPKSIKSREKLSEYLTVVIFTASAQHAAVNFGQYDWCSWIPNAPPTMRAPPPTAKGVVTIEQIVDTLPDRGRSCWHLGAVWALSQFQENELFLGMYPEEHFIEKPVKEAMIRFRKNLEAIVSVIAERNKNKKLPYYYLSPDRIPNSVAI

[13] = system: carrageenan-induced inflammation of paw; experiment: Carrageenan-induced paw edema, rats; assay type: in vivo, Sprague Dawley male rats; details: for Rat Inflammatory: 8 mg/kg x 2, I.P., Table 2;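 on Rat Inflammatory: paw weight increase as percent of control rats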
[14] = target: T2, 5'-lipoxygenase (Homo sapiens, UniProt P09917); experiment: 5'-Lipoxygenase activity, human leukocytes; assay type: cell-based; details: Table 7
T2 construct: endogenous in cells; host or cells: RMPI 1788 human leukocytes
T2 sequence (P09917 1-674): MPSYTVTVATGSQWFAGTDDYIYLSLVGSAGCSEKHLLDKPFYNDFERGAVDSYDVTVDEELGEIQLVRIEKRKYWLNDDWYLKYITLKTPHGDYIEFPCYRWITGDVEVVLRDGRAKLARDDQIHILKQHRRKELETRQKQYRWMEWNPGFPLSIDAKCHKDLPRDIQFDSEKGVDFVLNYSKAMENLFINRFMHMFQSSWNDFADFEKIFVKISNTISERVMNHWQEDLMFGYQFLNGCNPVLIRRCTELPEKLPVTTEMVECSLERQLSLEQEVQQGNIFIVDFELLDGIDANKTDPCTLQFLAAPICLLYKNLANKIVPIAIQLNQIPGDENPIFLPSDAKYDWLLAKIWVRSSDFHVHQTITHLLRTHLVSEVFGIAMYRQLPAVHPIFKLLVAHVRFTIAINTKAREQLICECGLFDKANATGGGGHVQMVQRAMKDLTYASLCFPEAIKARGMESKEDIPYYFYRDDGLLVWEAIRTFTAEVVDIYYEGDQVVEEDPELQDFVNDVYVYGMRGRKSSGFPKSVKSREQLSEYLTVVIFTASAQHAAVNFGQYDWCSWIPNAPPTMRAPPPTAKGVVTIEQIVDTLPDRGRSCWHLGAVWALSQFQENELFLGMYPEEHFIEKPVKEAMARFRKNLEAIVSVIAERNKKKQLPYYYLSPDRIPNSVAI

[15] = target: T3, prostaglandin cyclooxygenase (Bos taurus, UniProt O62664); experiment: Prostaglandin synthetase from bovine seminal vesicles; assay type: biochemical; details: Table 7; read-out: IC50 Prostaglandin Cyclooxygenase, Beef Seminal Vesicle
T3 construct: purified commercial prostaglandin synthetase from bovine seminal vesicles (Miles Research Products); purchased Miles Research Products; host or cells: bovine seminal vesicles (tissue preparation)
T3 sequence (O62664 25-600): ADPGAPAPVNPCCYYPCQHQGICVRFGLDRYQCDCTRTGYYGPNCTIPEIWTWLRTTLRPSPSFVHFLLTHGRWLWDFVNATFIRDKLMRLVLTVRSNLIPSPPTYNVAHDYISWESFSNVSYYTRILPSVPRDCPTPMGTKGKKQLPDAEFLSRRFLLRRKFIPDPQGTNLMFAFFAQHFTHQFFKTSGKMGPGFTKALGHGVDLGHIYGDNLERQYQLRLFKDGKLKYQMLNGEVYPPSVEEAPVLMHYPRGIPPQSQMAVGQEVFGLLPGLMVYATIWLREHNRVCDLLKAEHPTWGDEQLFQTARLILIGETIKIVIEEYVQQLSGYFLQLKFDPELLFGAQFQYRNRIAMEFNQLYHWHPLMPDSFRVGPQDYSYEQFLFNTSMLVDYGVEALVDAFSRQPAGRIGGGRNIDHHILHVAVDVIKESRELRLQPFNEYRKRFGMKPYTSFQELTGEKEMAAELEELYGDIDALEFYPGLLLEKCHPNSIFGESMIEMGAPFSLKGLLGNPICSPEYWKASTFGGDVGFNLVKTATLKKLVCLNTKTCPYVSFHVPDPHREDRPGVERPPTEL

[16] = system: prostaglandin cyclooxygenase; experiment: Prostaglandin cyclooxygenase activity, Be Sal cells; assay type: cell-based, human (Be Sal osteofibrolytic cells); details: Table 7; read-out: IC50 Prostaglandin Cyclooxygenase, Be Sal Osteofibro
[17] = system: tail flick response to heat; experiment: Hot plate tail flick screen; assay type: in vivo, CF1 male mice; details: for Mice Tail Flick: 8 mg/kg I.P., hot plate, Table 2; for tail flick assay time: mice, 8 mg/kg
[18] = system: carrageenan-induced pleural fluid; experiment: Anti-pleurisy screen; assay type: in vivo, Sprague Dawley male rats; details: for Rat Pleurisy: rats, 8 mg/kg I.P., 1 h before and 3 h after carrageenan, Table 2; for pleurisy edema in rats: 8 mg/kg;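 on Rat Pleurisy: Pleural fluid volume as percent of control rats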
[19] = system: adjuvant (M. butyricum) arthritis; experiment: Chronic adjuvant arthritic screen; assay type: in vivo; details: rats; for Rat Chronic Arthritis: 8 mg/kg/day I.P., Day 3 to Day 21, Table 2

Row | Compound | IC50 [1] | IC50 [2] | IC50 [3] | IC50 [4] | IC50 [5] | IC50 [6] | IC50 [8] | IC50 [9] | IC50 [10] | Mice Writhing Reflex [11] | reduction of the reflex action [11] | Rat Inflammatory [13] | IC50 [16] | Mice Tail Flick [17] | tail flick assay time [17] | Rat Pleurisy [18] | other results
1 | O=C(O)[BH2-][NH+]1CCOCC1 [Compound 83] | 0.96 µM | 1.76 µM | 2.37 µM | 7.59 µM | 5.41 µM | 9.89 µM | 8.09 µM | 0.16 µM |  |  |  |  |  |  |  |  | reduction of induced edema [7]: at least 30%
2 | [BH3-][NH2+]C(C)(C)C [Compound 1] | 0.22 µM | 4.62 µM | 2.09 µM |  | 4.67 µM | 7.74 µM | 9.26 µM | 8.08 µM | 4.19 µM | 19 % of control | 80% |  |  |  |  |  | 
3 | C[NH+](C)[BH2-]C#N [Compound 33] | 2.53 µM | 5.54 µM | 2.44 µM | 9.02 µM | 6.24 µM | 7.54 µM | 9.04 µM | 1.13 µM | 5.92 µM | 15 % of control | 80% | 61 % of control |  |  |  |  | IC50 [12]: 9.89 µM; IC50 [14]: 3.47 µM
4 | COC(=O)[BH2-][NH+](C)C [Compound 15] | 2.14 µM | 6.71 µM | 2.78 µM | 7.41 µM | 6.1 µM | 6.57 µM | 9.74 µM | 1.04 µM | 2.81 µM | 12 % of control | 80% | 59 % of control | 4.24 µM | 147 % of control | increased | 86 % of control | IC50 [12]: 6.61 µM; IC50 [15]: 2.86 µM; anti-inflammatory activity in mouse edema screen ([7]; 8 mg/kg x 2): less active; reduction in induced edema in rats ([13]; 8 mg/kg x 2): at least 40%; IC50 [14]: 5.37 µM
5 | CC[N+]#C[BH2-][N+](C)(C)C.F[B-](F)(F)F [Compound 74] | 2.32 µM | 9.13 µM | 1.83 µM | 6.03 µM | 6.55 µM | 10.5 µM | 10 µM | 1.31 µM | 1.52 µM | 40 % of control | at least 45% | 81 % of control |  |  |  |  | reduction of induced edema [7]: at least 40%
6 | CCCCCCCCCCCCCCCC[N+](C)(C)[BH2-]C#N [Compound 35] | 2.75 µM | 4.97 µM | 2.69 µM | 7.16 µM | 6.31 µM | 7.28 µM | 9.19 µM | 0.33 µM |  | 16 % of control | 80% |  |  |  |  |  | 
7 | C[N+](C)(C)[BH2-]C(=O)NO.Cl [Compound 77] | 1.49 µM | 5.13 µM | 2.14 µM | 1.4 µM |  |  |  | 6.59 µM | 7.72 µM | 41 % of control | at least 45% |  | 1.09 µM | 139 % of control |  |  | 
8 | C[N+](C)(C)[BH2-]C(C#N)c1ccccc1 (stereo not shown) [Compound 46] | 5.21 µM | 2.57 µM | 2.4 µM | 3.4 µM |  |  |  | 7.72 µM | 6.59 µM | 46 % of control | at least 45% |  | 2.33 µM | 191 % of control | increased |  | IC50 [15]: 0.71 µM
9 | C[NH2+][BH2-]C(=O)O [Compound 2] | 2.32 µM | 9.45 µM | 2.34 µM | 8.3 µM | 5.82 µM | 9.89 µM | 8.94 µM | 0.9 µM | 3.5 µM | 31 % of control | at least 45% | 70 % of control |  | 147 % of control | increased | 61 % of control | activity in chronic arthritis screen ([19]; 8 mg/kg/day): significantly active; Rat Chronic Arthritis [19]: 53 % of control; pleurisy edema in rats [18]: reduced significantly
10 | CCOC(=O)[BH2-][NH+](C)C [Compound 20] | 3.28 µM | 3.94 µM | 2.02 µM | 9.27 µM | 6.62 µM | 9.18 µM | 10.3 µM | 1.12 µM |  |  | at least 45% |  |  |  |  | 61 % of control | reduction of pannus ([19]; 8 mg/kg/day): greater than 75%; Rat Chronic Arthritis [19]: 13 % of control; pleurisy edema in rats [18]: reduced significantly
